Assay results from US20110045101A1, “FUNGICIDAL SUBSTITUTED AZOLES” (E.I. Du Pont De Nemours and Company, priority 2009, published 2011).
Marks after values point to notes of the source that are not given here.

Experiments:
Format in all cases: in vivo
Details in all cases: 100 = 100% disease control, 0 = no control
Botrytis cinerea = test: Test C: tomato Botrytis on tomato seedlings, sprayed the day before inoculation, visual disease rating
In short: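 Disease scored by eye on tomato seedlings inoculated with Botrytis cinerea a day after treatment. Treatment was a run-off spray at 200 ppm (equivalent to 500 g/ha), or 40 ppm where marked, in acetone/water carrying 250 ppm Trem 014.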

Alternaria solani = test: Test D: tomato early blight, sprayed the day before inoculation, visual disease rating
In short: (§1)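 Ratings reflect a 200 ppm spray (≈500 g/ha) unless marked as 40 ppm. Plants were sprayed to run-off. The spray suspension was acetone/purified water 50/50 containing 250 ppm Trem 014, after first dissolving compound in acetone at 3% of final volume.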

Septoria nodorum = test: Test F: wheat glume blotch on wheat seedlings, sprayed the day before inoculation, visual disease rating
In short: as §1

Septoria tritici = test: Test G: wheat leaf blotch on wheat seedlings, sprayed the day before inoculation, visual disease rating
In short: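 Compounds dissolved in acetone (3% of final volume), then suspended in 50/50 acetone/water with 250 ppm Trem® 014 and sprayed to run-off on seedlings at 200 ppm (≈500 g/ha) or 40 ppm where marked. Inoculation with spores followed next day; visual rating after 48 h saturated at 24° C plus 19 days at 20° C.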

[1] = tested on: Puccinia recondita f. sp. tritici; test: Test I: wheat leaf rust on wheat seedlings, sprayed the day before inoculation, visual disease rating
In short: as §1

[2] = tested on: Erysiphe graminis f. sp. tritici; test: Test J: wheat powdery mildew on wheat seedlings, sprayed the day before inoculation, visual disease rating
In short: as §1

| Compound | Test C disease control rating (Botrytis cinerea; 200 ppm) [%] | Test D disease control rating (Alternaria solani; 200 ppm) [%] | Test F disease control rating (Septoria nodorum; 200 ppm) [%] | Test G disease control rating (Septoria tritici; 200 ppm) [%] | Test I disease control rating ([1]; 200 ppm) [%] | Test J disease control rating ([2]; 200 ppm) [%] | Test C disease control rating (Botrytis cinerea; 40 ppm (marked *)) | Test D disease control rating (Alternaria solani; 40 ppm (marked *)) | Test F disease control rating (Septoria nodorum; 40 ppm (marked *)) | Test G disease control rating (Septoria tritici; 40 ppm (marked *)) | Test I disease control rating ([1]; 40 ppm (marked *)) | Test J disease control rating ([2]; 40 ppm (marked *)) |
| --- | --- | --- | --- | --- | --- | --- | --- | --- | --- | --- | --- | --- |
| Cc1ccc(-n2c(Br)nc(Cl)c2-c2c(F)cccc2F)cc1F [compound 170] | 97 | 98 | 0 | 95 | 99 | 99 |  |  |  |  |  |  |
| COc1cc(F)c(-c2c(Cl)nc(Br)n2-c2ccc(Cl)cc2)c(Cl)c1 [compound 171] | 99 | 100 | 100 | 98 | 98 | 99 |  |  |  |  |  |  |
| COc1cc(F)c(-c2c(Cl)nc(C)n2-c2ccc(Cl)cc2)c(Cl)c1 [compound 172] | 99 | 99 | 100 | 98 | 99 | 99 |  |  |  |  |  |  |
| COc1cc(F)c(-n2cnc(Br)c2-c2ccc(Cl)cc2)c(F)c1 [compound 173] |  |  |  |  |  |  | 98* % | 0* % | 0* % | 90* % | 41* % | 0* % |
| Cc1nc(Cl)c(-c2c(F)cccc2F)n1-c1ccc(F)c(F)c1 [compound 174] | 98 | 99 | 82 | 98 | 100 | 100 |  |  |  |  |  |  |
| Cc1ccc(-n2c(C)nc(Cl)c2-c2c(F)cccc2F)cc1F [compound 175] | 97 | 97 | 82 | 98 | 100 | 99 |  |  |  |  |  |  |
| Fc1ccc(-n2cnc(Cl)c2-c2c(F)ccc(F)c2Cl)cc1 [compound 176] | 96 | 91 | 0 | 87 | 99 | 99 |  |  |  |  |  |  |
| Cc1ccc(-n2cnc(Cl)c2-c2c(F)ccc(F)c2Cl)cc1 [compound 177] | 88 | 0 | 0 | 79 | 99 | 99 |  |  |  |  |  |  |
| Fc1ccc(-n2c(Br)nc(Cl)c2-c2ccc(F)cc2Cl)cc1 [compound 182] | 99 | 100 | 73 | 96 | 97 | 99 |  |  |  |  |  |  |
| Fc1ccc(-n2c(Cl)nc(Cl)c2-c2ccc(F)cc2Cl)cc1 [compound 183] |  |  |  |  |  |  | 99* % | 91* % | 0* % | 85* % | 66* % | 48* % |
| Cc1ccc(-n2c(Br)nc(Cl)c2-c2ccc(F)cc2Cl)cc1 [compound 184] | 99 | 100 | 0 | 97 | 100 | 100 |  |  |  |  |  |  |
| Fc1ccc(-n2c(Br)nc(Cl)c2-c2c(F)cccc2Cl)cc1 [compound 185] | 99 | 100 | 78 | 94 | 100 | 99 |  |  |  |  |  |  |
| Cc1ccc(-n2c(Br)nc(Cl)c2-c2c(F)cccc2Cl)cc1 [compound 186] | 98 | 88 | 0 | 97 | 100 | 100 |  |  |  |  |  |  |
